Where “and” joins values, the source holds several entries; their conditions need not be identical. Equal entries are not always repeated. ± gives the expanded uncertainty stated by the source.
Conditions: 101.33 kPa, Liquid; for viscosity: Concentric cylinders viscometry; for speed of sound: Pulse-echo method; for mass density: Vibrating tube method

CCC(C)CC(C)CC (centres undefined) [3,5-dimethylheptane]
Conditions | mass density | speed of sound [m/s] | viscosity [mPa·s]
283.15 K | 734.1 ± 0.5 kg/m3 and 734 ± 0.4 kg/m3 | 1245.1 ± 1.9 | 0.792 ± 0.018
293.15 K | 726.2 ± 0.4 kg/m3 and 726.3 ± 0.5 kg/m3 | 1203.3 ± 1.9 | 0.688 ± 0.016
303.15 K | 718.4 ± 0.4 kg/m3 and 718.4 ± 0.5 kg/m3 | 1162 ± 1.9 | 0.604 ± 0.014
313.15 K | 710.5 ± 0.4 kg/m3 and 710.5 ± 0.5 kg/m3 | 1121.3 ± 1.9 | 0.508 ± 0.012
323.15 K | 702.5 ± 0.4 kg/m3 and 702.5 ± 0.5 kg/m3 | 1081.4 ± 1.9 | 0.477 ± 0.012
333.15 K | 694.5 ± 0.5 kg/m3 | – | 0.428 ± 0.01
343.15 K | 686.3 ± 0.5 kg/m3 | – | 0.386 ± 0.01
353.15 K | 678 ± 0.5 kg/m3 | – | 0.35 ± 0.01
363.15 K | 669.7 ± 0.5 kg/m3 | – | 0.319 ± 0.008
373.15 K | 661.2 ± 0.5 kg/m3 | – | –

CCCCCCC(C)C [2-methyloctane]
Conditions | mass density | speed of sound [m/s] | viscosity [mPa·s]
283.15 K | 723.2 ± 0.5 kg/m3 and 723.2 ± 0.3 kg/m3 | 1242.2 ± 1.5 | 0.776 ± 0.017
293.15 K | 715.4 ± 0.3 kg/m3 and 715.3 ± 0.4 kg/m3 | 1201.3 ± 1.5 | 0.676 ± 0.015
303.15 K | 707.6 ± 0.3 kg/m3 and 707.4 ± 0.4 kg/m3 | 1160.7 ± 1.5 | 0.594 ± 0.013
313.15 K | 699.6 ± 0.3 kg/m3 and 699.4 ± 0.4 kg/m3 | 1120.7 ± 1.5 | 0.499 ± 0.011
323.15 K | 691.6 ± 0.4 kg/m3 and 691.4 ± 0.4 kg/m3 | 1081.2 ± 1.5 | 0.47 ± 0.011
333.15 K | 683.3 ± 0.4 kg/m3 | – | 0.422 ± 0.01
343.15 K | 675.1 ± 0.4 kg/m3 | – | 0.381 ± 0.009
353.15 K | 666.7 ± 0.4 kg/m3 | – | 0.345 ± 0.008
363.15 K | 658.2 ± 0.4 kg/m3 | – | 0.315 ± 0.008
373.15 K | 649.7 ± 0.5 kg/m3 | – | 0.288 ± 0.008

CCCCCCCC(C)C [2-methylnonane]
Conditions | mass density | speed of sound [m/s] | viscosity [mPa·s]
283.15 K | 734.7 ± 0.4 kg/m3 and 734.5 ± 0.3 kg/m3 | 1271.4 ± 1.5 | 1.037 ± 0.022
293.15 K | 726.9 ± 0.3 kg/m3 and 727.1 ± 0.4 kg/m3 | 1231.1 ± 1.5 | 0.887 ± 0.02
303.15 K | 719.3 ± 0.3 kg/m3 and 719.4 ± 0.4 kg/m3 | 1191.3 ± 1.5 | 0.768 ± 0.017
313.15 K | 711.6 ± 0.3 kg/m3 and 711.7 ± 0.4 kg/m3 | 1152 ± 1.5 | 0.653 ± 0.015
323.15 K | 703.9 ± 0.3 kg/m3 and 703.9 ± 0.4 kg/m3 | 1113.4 ± 1.5 | 0.595 ± 0.013
333.15 K | 696 ± 0.4 kg/m3 | – | 0.529 ± 0.012
343.15 K | 688.1 ± 0.4 kg/m3 | – | 0.475 ± 0.011
353.15 K | 680.2 ± 0.4 kg/m3 | – | 0.428 ± 0.01
363.15 K | 672.1 ± 0.4 kg/m3 | – | 0.388 ± 0.009
373.15 K | 664 ± 0.4 kg/m3 | – | 0.355 ± 0.009

CCCCCCCCC(C)C [2-methyldecane]
Conditions | mass density | speed of sound [m/s] | viscosity [mPa·s]
283.15 K | 745.7 ± 0.3 kg/m3 and 745.8 ± 0.3 kg/m3 | 1295.5 ± 1.3 | 1.37 ± 0.02
293.15 K | 738.4 ± 0.3 kg/m3 and 738.3 ± 0.3 kg/m3 | 1256.2 ± 1.3 | 1.15 ± 0.04
303.15 K | 730.9 ± 0.3 kg/m3 | 1217.1 ± 1.3 | 0.977 ± 0.021
313.15 K | 723.5 ± 0.3 kg/m3 and 723.2 ± 0.3 kg/m3 | 1178.8 ± 1.3 | 0.83 ± 0.017
323.15 K | 715.9 ± 0.3 kg/m3 and 715.7 ± 0.3 kg/m3 | 1141 ± 1.3 | 0.736 ± 0.015
333.15 K | 708.1 ± 0.3 kg/m3 | – | 0.647 ± 0.017
343.15 K | 700.5 ± 0.3 kg/m3 | – | 0.575 ± 0.017
353.15 K | 692.8 ± 0.4 kg/m3 | – | 0.514 ± 0.015
363.15 K | 684.9 ± 0.4 kg/m3 | – | 0.464 ± 0.013
373.15 K | 677 ± 0.4 kg/m3 | – | 0.422 ± 0.011

CCC(C)CCC(C)CC (centres undefined) [3,6-dimethyloctane]
Conditions | mass density | speed of sound [m/s] | viscosity [mPa·s]
283.15 K | 746.6 ± 0.4 kg/m3 and 746.6 ± 0.5 kg/m3 | 1277.8 ± 1.7 | 0.988 ± 0.022
293.15 K | 738.9 ± 0.5 kg/m3 and 738.9 ± 0.4 kg/m3 | 1236.7 ± 1.7 | 0.846 ± 0.018
303.15 K | 731.2 ± 0.5 kg/m3 and 731.1 ± 0.4 kg/m3 | 1196.2 ± 1.7 | 0.733 ± 0.016
313.15 K | 723.5 ± 0.6 kg/m3 and 723.3 ± 0.4 kg/m3 | 1156.3 ± 1.9 | 0.62 ± 0.014
323.15 K | 715.7 ± 0.6 kg/m3 and 715.5 ± 0.4 kg/m3 | 1117.2 ± 1.7 | 0.568 ± 0.014
333.15 K | 707.6 ± 0.4 kg/m3 | – | 0.506 ± 0.012
343.15 K | 699.6 ± 0.4 kg/m3 | – | 0.453 ± 0.01
353.15 K | 691.5 ± 0.4 kg/m3 | – | 0.409 ± 0.01
363.15 K | 683.3 ± 0.4 kg/m3 | – | 0.372 ± 0.01
373.15 K | 674.9 ± 0.5 kg/m3 | – | 0.328 ± 0.008

CCCCCCCCCC(C)CCCCCC (centres undefined) [7-methylhexadecane]
Conditions | mass density | speed of sound [m/s] | viscosity [mPa·s]
283.15 K | 787.6 ± 0.6 kg/m3 | 1392.5 ± 2.3 | 5.36 ± 0.52
293.15 K | 780.7 ± 0.6 kg/m3 | 1354.9 ± 2.3 | 4 ± 0.4
303.15 K | 773.9 ± 0.6 kg/m3 and 773.8 ± 0.6 kg/m3 | 1317.7 ± 2.3 | 3.09 ± 0.28
313.15 K | 767 ± 0.6 kg/m3 and 766.9 ± 0.6 kg/m3 | 1281.3 ± 2.3 | 2.47 ± 0.22
323.15 K | 760.2 ± 0.6 kg/m3 and 760 ± 0.6 kg/m3 | 1245.5 ± 2.3 | 2 ± 0.18
333.15 K | 753.1 ± 0.6 kg/m3 | – | 1.66 ± 0.16
343.15 K | 746.2 ± 0.6 kg/m3 | – | 1.41 ± 0.12
353.15 K | 739.3 ± 0.6 kg/m3 | – | 1.21 ± 0.08
363.15 K | 732.4 ± 0.6 kg/m3 | – | 1.05 ± 0.08
373.15 K | 725.4 ± 0.6 kg/m3 | – | 0.91 ± 0.05

CCCCCCCCC(C)CC (centres undefined) [3-methylundecane]
Conditions | mass density | speed of sound [m/s] | viscosity [mPa·s]
283.15 K | 758.6 ± 0.6 kg/m3 and 758.3 ± 0.6 kg/m3 | 1330.2 ± 2.3 | 1.73 ± 0.03
293.15 K | 751.1 ± 0.6 kg/m3 and 751.3 ± 0.6 kg/m3 | 1291 ± 2.3 | 1.43 ± 0.03
303.15 K | 743.9 ± 0.6 kg/m3 and 744 ± 0.6 kg/m3 | 1252.2 ± 2.3 | 1.2 ± 0.02
313.15 K | 736.6 ± 0.6 kg/m3 and 736.7 ± 0.6 kg/m3 | 1214 ± 2.3 | 1.01 ± 0.02
323.15 K | 729.3 ± 0.6 kg/m3 | 1176.6 ± 2.3 | 0.883 ± 0.021
333.15 K | 721.9 ± 0.6 kg/m3 | – | 0.771 ± 0.019
343.15 K | 714.4 ± 0.6 kg/m3 | – | 0.68 ± 0.017
353.15 K | 707 ± 0.6 kg/m3 | – | 0.605 ± 0.014
363.15 K | 699.4 ± 0.6 kg/m3 | – | 0.543 ± 0.012
373.15 K | 691.9 ± 0.6 kg/m3 | – | 0.492 ± 0.012

CCCCC(C)CCC (centres undefined) [4-methyloctane]
Conditions | mass density | speed of sound [m/s] | viscosity [mPa·s]
283.15 K | 727.5 ± 0.4 kg/m3 and 727.6 ± 0.3 kg/m3 | 1254.9 ± 1.5 | 0.719 ± 0.021
293.15 K | 719.8 ± 0.3 kg/m3 and 719.7 ± 0.4 kg/m3 | 1213 ± 1.5 | 0.628 ± 0.021
303.15 K | 711.9 ± 0.3 kg/m3 and 711.7 ± 0.4 kg/m3 | 1171.6 ± 1.5 | 0.554 ± 0.021
313.15 K | 703.9 ± 0.3 kg/m3 and 703.7 ± 0.4 kg/m3 | 1130.8 ± 1.5 | 0.453 ± 0.08
323.15 K | 695.9 ± 0.3 kg/m3 and 695.7 ± 0.4 kg/m3 | 1090.7 ± 1.5 | 0.441 ± 0.021
333.15 K | 687.5 ± 0.4 kg/m3 | – | 0.397 ± 0.021
343.15 K | 679.3 ± 0.4 kg/m3 | – | 0.368 ± 0.06
353.15 K | 671 ± 0.4 kg/m3 | – | 0.329 ± 0.04
363.15 K | 662.5 ± 0.4 kg/m3 | – | 0.294 ± 0.04
373.15 K | 653.9 ± 0.4 kg/m3 | – | 0.261 ± 0.04

CCCCCCCCCCCCCC(C)C [2-methylpentadecane]
Conditions | mass density | speed of sound [m/s] | viscosity [mPa·s]
283.15 K | 782.2 ± 4.9 kg/m3 and 781.8 ± 4.9 kg/m3 | 1378.7 ± 6.1 | 4.6 ± 0.29
293.15 K | 774.9 ± 4.9 kg/m3 and 775 ± 4.9 kg/m3 | 1341 ± 6.1 | 3.52 ± 0.24
303.15 K | 767.9 ± 4.8 kg/m3 and 768 ± 4.8 kg/m3 | 1303.8 ± 6.1 | 2.77 ± 0.16
313.15 K | 761 ± 4.7 kg/m3 | 1267.3 ± 6.1 | 2.24 ± 0.16
323.15 K | 754.1 ± 4.6 kg/m3 and 754 ± 4.6 kg/m3 | 1231.6 ± 6.1 | 1.85 ± 0.11
333.15 K | 747 ± 4.5 kg/m3 | – | 1.55 ± 0.08
343.15 K | 740 ± 4.5 kg/m3 | – | 1.33 ± 0.06
353.15 K | 733 ± 4.4 kg/m3 | – | 1.14 ± 0.07
363.15 K | 726 ± 4.3 kg/m3 | – | 1 ± 0.05
373.15 K | 718.9 ± 4.2 kg/m3 | – | 0.88 ± 0.03
